Laboratory results published in the NIST ThermoML archive (doi:10.1016/j.fluid.2006.09.017).
Numbers after ± are expanded uncertainties.

Details: Liquid

Compound: FCF [difluoromethane]
- vapor or sublimation pressure (258.15 K): 488.1 ± 15 kPa
- vapor or sublimation pressure (268.15 K): 690.6 ± 22 kPa
- vapor or sublimation pressure (275.15 K): 866.5 ± 27 kPa
- vapor or sublimation pressure (283.15 K): 1107 ± 35 kPa
- vapor or sublimation pressure (293.15 K): 1475 ± 46 kPa
- vapor or sublimation pressure (303.15 K): 1928 ± 60 kPa
- vapor or sublimation pressure (313.15 K): 2478 ± 77 kPa
- vapor or sublimation pressure (323.15 K): 3141 ± 98 kPa
- vapor or sublimation pressure (333.15 K): 3933 ± 120 kPa
- vapor or sublimation pressure (343.15 K): 4877 ± 150 kPa

Compound: FCC(F)(F)F [1,1,1,2-tetrafluoroethane]
- vapor or sublimation pressure (258.15 K): 163.9 ± 5.9 kPa
- vapor or sublimation pressure (263.15 K): 200.6 ± 6.8 kPa
- vapor or sublimation pressure (268.15 K): 243.3 ± 7.9 kPa
- vapor or sublimation pressure (275.15 K): 314.6 ± 10 kPa
- vapor or sublimation pressure (283.15 K): 414.6 ± 13 kPa
- vapor or sublimation pressure (293.15 K): 571.7 ± 18 kPa
- vapor or sublimation pressure (303.15 K): 770.2 ± 24 kPa
- vapor or sublimation pressure (313.15 K): 1017 ± 32 kPa
- vapor or sublimation pressure (323.15 K): 1318 ± 41 kPa
- vapor or sublimation pressure (333.15 K): 1682 ± 52 kPa
- vapor or sublimation pressure (343.15 K): 2117 ± 66 kPa
